Laboratory results as given in PMC4640066 (Nature Communications, 2015).

Columns and labels:
[1] = test system: γ-tubulin-dependent, centrosome-induced aster formation; experiment: Centrosome (sperm nuclei)-induced aster formation in Xenopus egg extracts; assay type: biochemical; conditions: Xenopus extracts with sperm nuclei, 30 min at 20 °C
Description: Cytostatic factor (CSF)-arrested M phase Xenopus egg extracts (CSF extracts) were prepared. Briefly, unfertilized eggs were crushed by 10,700g centrifugation for 20 min. M phase extracts were mixed with 0.5 μM Cy3-labelled α/β-tubulin and various concentrations of compounds. After incubation for 30 min on ice, 15 μM RanQ69L, 200 sperm nuclei per μl or 5% DMSO were added and incubated for 30 min on ice. […]
(a) The efficiency of γ-tubulin depletion in Xenopus extracts was confirmed by immunoblotting. […] The depletion efficiency was calculated with ImageJ and was approx. 80%. […]
Scale bars, 5 μm. […] Aster formation was analyzed by fluorescence microscopy. […] Asters (Fig. 1e and Supplementary Figure 4c) in 10 randomly selected fields were counted per slide with a 10× objective; each sample had four slides. […]
Error bars represent S.D. Two-tailed, paired Student’s t-test was used to obtain P values. […] (e) Quantification of the radius of RanQ69L-induced asters from Fig. 1e and Supplementary Figure 4c. To gauge the impact upon the radius of the asters, n = 20 asters were quantified per sample per experiment. […]

HeLa cells = experiment: Transition from S phase to mitotic entry and spindle formation; assay type: cell-based, human; conditions: 30 μM
Description: Cells expressing EGFP-α-tubulin and mCherry-H2B were prepared as described previously. Cells were arrested at the S phase with 2-mM thymidine treatment for 15 h. To determine the time required for mitotic entry from S phase release, thymidine was removed by washing cells with PBS three times. After treatment with 30 μM gatastatin for 9 h, time-lapse analysis was performed using DeltaVision Olympus IX71 microscope (Applied Precision) equipped with CoolSNAP HQ camera (Photometrics). Images were taken every 6 min with 12 z-stack (1 μm per stack). During live cell imaging, cells were maintained at 37 °C and were supplied with 5% CO2. The timing of the mitotic entry was defined by the chromosome condensation after nuclear envelope breakdown.

human γ-tubulin = molecular target: T1, human γ-tubulin (Homo sapiens, UniProt P23258); experiment: Tryptophan-based drug-binding assay, γ-tubulin; conditions: for Ratio of Kd[α/β-tubulin]/Kd[γ-tubulin]: selectivity for γ-tubulin over α/β-tubulin
T1 construct: myc (C); 6His (C); made in house; host or cells: Sf21 insect cells (baculovirus)
T1 sequence (P23258 whole entry): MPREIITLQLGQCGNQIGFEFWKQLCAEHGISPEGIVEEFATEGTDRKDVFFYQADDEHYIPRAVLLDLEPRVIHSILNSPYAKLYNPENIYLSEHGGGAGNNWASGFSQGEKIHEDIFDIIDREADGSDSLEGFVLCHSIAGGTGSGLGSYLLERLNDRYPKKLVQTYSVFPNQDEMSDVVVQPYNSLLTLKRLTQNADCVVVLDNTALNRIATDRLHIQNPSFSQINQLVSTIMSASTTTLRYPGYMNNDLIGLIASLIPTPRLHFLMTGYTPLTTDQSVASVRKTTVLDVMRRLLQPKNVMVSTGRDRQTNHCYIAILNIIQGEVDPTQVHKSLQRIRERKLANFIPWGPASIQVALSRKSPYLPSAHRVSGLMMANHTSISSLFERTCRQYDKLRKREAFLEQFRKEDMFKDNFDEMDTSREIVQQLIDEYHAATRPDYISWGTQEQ
Description: In brief, 0.7 × 10^6 cells ml^−1 were infected with the γ-tubulin baculovirus. After 48 h, cells were collected by centrifugation at […] for 10 min and flash-frozen in liquid nitrogen and stored at −80 °C. Purification was carried out as described with slight modifications. […] Imidazole (final 10 mM) was added and the lysate was centrifuged again at 192,800g for 30 min at 4 °C. […] Ni-NTA Agarose was then washed twice with wash buffer 1 (lysis buffer containing 25 mM imidazole) and wash buffer 2 (50 mM MES pH 6.6, 500 mM KCl, 5 mM MgCl2, 10% glycerol, 10 μM GTP and 1 mM DTT) containing 25 mM imidazole. γ-Tubulin was eluted with wash buffer 2 containing 200 mM imidazole.
Monomeric γ-tubulin was prepared using a size exclusion column HiLoad 16/60 Superdex 200 pre-equilibrated with gel filtration buffer (50 mM MES pH 6.6, 500 mM KCl, 5 mM MgCl2, 1 mM EGTA, 10 μM GTP and 1 mM DTT). The peak fractions representing monomeric γ-tubulin were identified by A280 and confirmed using SDS–PAGE. Protein was concentrated using a Vivaspin concentrator (Sartorius) and supplemented with 10% glycerol, following snap-freezing in liquid nitrogen and storage at −80 °C.
Gel filtration buffer for γ-tubulin purification (50 mM MES pH 6.6, 500 mM KCl, 5 mM MgCl2, 1 mM EGTA and 1 mM DTT) supplemented with 10% of glycerol was used as an assay buffer. γ-tubulin and α/β-tubulin were diluted in this assay buffer to reach a final protein concentration of 1 μM. A final concentration of 10 μM or 1 mM GTP was added to the samples. Proteins were incubated for 30 min with compounds (final DMSO concentration was 1%; 2% for AG1 and gatastatin). […] Dissociation constants were calculated from fitting curves of decreasing fluorescence (ΔFL) using the GraphPad Prizm software.

In the case of `COc1cc2c(=O)c(-c3cc(OC)c4c(c3OC)OCO4)coc2cc1OCc1ccccc1` [Gatastatin, O^7-demethylbenzyl AG1], the “Effect on centrosome-induced aster formation” value [1] is reported as “nearly completely inhibited”, the “Mitotic cells with abnormal bipolar spindles with misaligned chromosomes” value (HeLa cells; HeLa cells released from S phase (thymidine)) is reported as ~80% and the “Timing of mitotic entry versus DMSO” value (HeLa cells; HeLa released from S phase) is reported as “virtually identical”. The “Ratio of Kd[α/β-tubulin]/Kd[γ-tubulin]” value (human γ-tubulin) was 11.81, the “Ratio of Kd[α/β-tubulin]/Kd[γ-tubulin]” value (human γ-tubulin; listed as gatastatin) was 12 and the Kd (human γ-tubulin; tryptophan fluorescence decrease, 1 μM protein, mean±s.d., three independent experiments) was 3.6 ± 1.3 µM.
